This assay relates to HCT116 cells. The experiment in a line: JC-1 mitochondrial membrane potential assay (flow cytometry). In kind it is cell-based, human. On the procedure: • Figure 1 represents the chemical structure of ingrilimine according to compound (Illa) formula. • Figure 2 represents the cytotoxic activity of ingrilimine. A2780 ovarian and HT29 colorectal carcinoma cells were grown in RPMI 1640 supplemented with 10% fetal calf serum (FCS) and 1% glutamine. U87-MG glioblastoma cells were grown in Dulbecco minimal essential medium containing 4.5 g/L glucose, 10% FCS and 1% glutamine at 37 °C in a humidified atmosphere containing 5% CO2. For IC50 determination, the cells were seeded in 96-well plates (3 × 10^3 cells/well) containing 90 µL of growth medium. After 24 h of culture, the cells were treated with ingrilimine at 10 different final concentrations. Cell viability was determined by luminescence after 72 h incubation. (a) Effect of ingrilimine on A2780 ovarian carcinoma cells. (b) Effect of ingrilimine on U87-MG glioblastoma cells. (c) Effect of ingrilimine on U87-MG glioblastoma cells • Figure 3a-3f represent the mitochondrial dysfunction provoked by ingrilimine. HCT116 cells were treated with ingrilimine in the range of […] for 24h and 48h. Sector Q normal cells that accumulated the JC-1 dye (fluorescence emission 590 nm). […] (a) Non-treated cells incubated with the carrier (DMSO) for 24 h. (b) HCT116 cells incubated with 10 nN ingrilimine for 24 h. (c) HCT116 cells incubated with 250 nM ingrilimine for 24 h. (d) Non-treated cells incubated with the carrier (DMSO) for 48 h. (e) HCT116 cells incubated with 10 nN ingrilimine for 48 h. (f) HCT116 cells incubated with 250 nM ingrilimine for 48. Changes in fluorescence emission were recorded by flow cytometry using the JC-1 mithocondrial membrane potential-dependent fluorescent dye. NT = non-treated cells; IngX = ingrilimine. • Figure 4a-4f represents phosphatidylserine exposure provoked by ingrilimine. […] Quadrants D1 and D2 with dead or necrotic cells, quadrant D3 with normal cells and quadrant D4 with apoptotic cells following phosphatidylserine exposure. (a) Non-treated A2780 cells incubated with the carrier (DMSO) for 24h. (b) A2780 cells incubated with 10 nM ingrilimine for 24 h. (c) A2780 cells incubated with 250 nM ingrilimine for 24 h. (d) Non-treated A2780 cells incubated with the carrier (DMSO) for 48 h. (e) A2780 cells incubated with 10 nM ingrilimine for 48 h. (f) A2780 cells incubated with 250 nM ingrilimine for 48. […] exposure in A2780 cell was quantified by flow cytometry using FITC-Annexin V. Dead or necrotic cells were detected using the vital dye propridium iodide. NT = non-treated cells; IngX = ingrilimine. • Figure 5 represents the antagonistic activity of ingrilimine (named "IngX" in the figure) and portimine (named "Port A" in the figure) against nicotinic acetylcholine receptors recorded by two-electrodes voltage clamp electrophysiology on Xenopus laevis oocytes. Clamped Xenopus laevis oocytes having incorporated the muscle (α1)2βγδ nAChR subtype from Torpedo marmorata (filled squares), or expressing the neuronal α3β2 nAChR subtype from rat (filled triangles), or expressing the human neuronal α7 nAChR subtype (filled circles) were exposed to portimine (100 nM - 1 mM) for 45 seconds. […] A Xenopus laevis oocyte expressing the human α7 nAChR subtype was exposed to 100 µM acetylcholine triggering the immediate opening of the receptor's channel (black bold line) followed by the very-fast closure of the channel ([…]) that became insensitive to acetylcholine during the rest of the 5 seconds exposure (desensitization). When a Xenopus laevis oocyte expressing the human α7 nAChR subtype was exposed first to 10 nM ingrilimine for 45 seconds and then to a mixture (Mix) containing 10 nM ingrilimine and 100 µM acetylcholine, the receptor's channel was closed denoting a strong antagonistic activity of the tested toxin against the α7 nAChR subtype (dotted line). […]
On the technique in general: A flow cytometer gives signals particle by particle.

Turning to `C=CC1=C[C@@H]2C[C@@H](O)[C@@H](O)/C(C)=C/C/C(C)=C/CCC3=NCCC[C@]32CC1` [Ingrilimine, ingrilimine], the JC-1 % runs as follows: (10 nM, 24 h) 5.1%; (10 nM, 48 h) 4.4%; (50 nM, 24 h) 6.1%; (50 nM, 48 h) 22.6%; (100 nM, 24 h) 14.9%; (100 nM, 48 h) 44.1%. The JC-1 % was found to be 22.7% (250 nM, 24 h); 64.1% (250 nM, 48 h); 36.9% (500 nM, 24 h). Moreover, the “times less potent than portimine in inducing mitochondrial membrane depolarization” value (HCT116, JC-1) is recorded as 10 times.
As to `C=CC1=C[C@@H]2[C@@H]3O[C@]4(CC[C@H](O4)[C@@H](C)C[C@@H](O)C3=O)C[C@H](O)C3=NCC[C@@]32CC1` [Portimine-A], the JC-1 % (5 nM, 48 h) is listed as 31.6%; the JC-1 % (10 nM, 24 h) was 19.7%; the JC-1 % (10 nM, 48 h) came out at 44.6%; the JC-1 % (20 nM, 24 h) came to 23.9%; the JC-1 % (20 nM, 48 h, listed as Portimine) is 62.1%; the JC-1 % (20 nM, 48 h, listed as portimine) stood at 62.3%. This molecule came in with a JC-1 % (50 nM, 24 h) of 37.0%.
